# Target: T1, KdpFABC (WT) (Escherichia coli, UniProt P03960)
# T1 construct: gene kdpB; full-length kdpFABC operon on plasmid pSD107 (native promoter), 8x His tag at C-terminus of KdpC; expressed in E. coli TK2499; purified in decyl maltoside; KdpB Ser162 phosphate removed with lambda protein phosphatase; Potassium-transporting ATPase KdpC subunit; Potassium-transporting ATPase KdpF subunit
# Assay: coupled-enzyme ATPase assay (pyruvate kinase / lactate dehydrogenase)
# Type: biochemical
# T1 sequence (P03960 whole entry): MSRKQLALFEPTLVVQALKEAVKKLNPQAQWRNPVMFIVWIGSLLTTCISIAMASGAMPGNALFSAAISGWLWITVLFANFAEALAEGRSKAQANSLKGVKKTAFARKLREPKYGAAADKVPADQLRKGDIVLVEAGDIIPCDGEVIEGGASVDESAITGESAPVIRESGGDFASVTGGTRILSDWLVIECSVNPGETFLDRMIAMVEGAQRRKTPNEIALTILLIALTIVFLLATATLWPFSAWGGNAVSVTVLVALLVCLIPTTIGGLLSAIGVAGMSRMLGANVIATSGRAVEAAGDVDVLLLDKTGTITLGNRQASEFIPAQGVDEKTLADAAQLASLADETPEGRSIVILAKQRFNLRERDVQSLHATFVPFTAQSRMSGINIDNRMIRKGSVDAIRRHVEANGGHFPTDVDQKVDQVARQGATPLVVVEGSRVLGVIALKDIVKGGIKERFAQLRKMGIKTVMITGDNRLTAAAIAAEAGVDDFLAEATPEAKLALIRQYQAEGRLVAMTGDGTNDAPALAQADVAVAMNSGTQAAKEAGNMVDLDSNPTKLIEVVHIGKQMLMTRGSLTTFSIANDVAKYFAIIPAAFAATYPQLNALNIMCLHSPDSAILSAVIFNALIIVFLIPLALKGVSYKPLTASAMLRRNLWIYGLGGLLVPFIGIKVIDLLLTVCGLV
# T1 sequence (P03959 whole entry partner): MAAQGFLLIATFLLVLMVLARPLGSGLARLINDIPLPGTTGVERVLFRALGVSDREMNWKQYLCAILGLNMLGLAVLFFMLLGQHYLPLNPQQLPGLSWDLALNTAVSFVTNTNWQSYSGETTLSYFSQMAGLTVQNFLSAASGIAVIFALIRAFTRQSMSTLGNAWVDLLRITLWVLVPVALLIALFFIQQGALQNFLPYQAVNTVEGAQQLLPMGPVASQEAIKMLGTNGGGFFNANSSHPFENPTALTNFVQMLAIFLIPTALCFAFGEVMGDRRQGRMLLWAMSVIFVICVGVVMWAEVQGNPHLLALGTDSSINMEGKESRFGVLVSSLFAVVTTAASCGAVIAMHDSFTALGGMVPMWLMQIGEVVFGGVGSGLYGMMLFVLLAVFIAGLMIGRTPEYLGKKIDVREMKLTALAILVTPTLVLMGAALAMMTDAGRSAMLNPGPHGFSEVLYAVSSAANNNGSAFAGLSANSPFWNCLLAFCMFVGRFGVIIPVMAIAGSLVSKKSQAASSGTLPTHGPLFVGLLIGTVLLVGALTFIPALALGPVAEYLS
# T1 sequence (P03961 whole entry partner): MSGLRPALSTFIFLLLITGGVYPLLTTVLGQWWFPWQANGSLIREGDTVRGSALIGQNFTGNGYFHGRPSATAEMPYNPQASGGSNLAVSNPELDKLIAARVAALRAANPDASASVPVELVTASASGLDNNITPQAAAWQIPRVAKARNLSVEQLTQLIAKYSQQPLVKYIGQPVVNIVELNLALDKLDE
# T1 sequence (P36937 whole entry partner): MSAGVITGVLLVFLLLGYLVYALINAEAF
smiles,measurement,value
[O]=[V]([OH])([OH])[OH] [orthovanadate],IC50,8.4 µM

# — article PMC7535926, “Serine phosphorylation regulates the P-type potassium pump KdpFABC” (eLife, 2020)
